What was measured:
Assay type in all cases: cell-based
U1 cells = assay: U1 assay, compound toxicity by MTS dye reduction; design: TC50: unit not given here
Protocol: (§1) At assay termination the assay plates were stained with the soluble tetrazolium-based dye MTS (CellTiter® Reagent, Promega) to determined cell viability and quantify compound toxicity. […] At termination of the assay 20 μL of MTS reagent was added per well. The wells were incubated for 4 h at 37° C., 5% CO2. Adhesive plate scalers were used in place of the lids, the sealed plate was inverted several times to mix the soluble formazan product and the plate was read spectrophotometrically at 490 nm with a 650 nm reference wavelength on a Molecular Devices Vmax plate reader.
(§2) U1 and ACH-2 cells were obtained from the AIDS Research and Reference Reagent Program and maintained under standard culture conditions in RPMI 1640 supplemented with 10% fetal bovine serum (heat inactivated), supplemented with 2 mM […], 100U/ml penicillin and 100 μg/ml, streptomycin. U1 cells were derived from the histocytic leukemia cell line U937, and contain a single integrated copy (HIV IIIB) […] a cytokine and/or phorbol inducible provirus. ACH-2 cells are derived from the A3.01 T lymphoblastic cell line, and contain 2 copies of the HIV IIIB provirus, however only one is cytokine and/or phorbol inducible. Cultures were maintained in such a way as to ensure exponential growth of the populations. At the time of the assay, cells were collected by centrifugation and counted by hemacytometer. If cell viability by Trypan Blue dye exclusion was less than 70% the assay was terminated. The cells were adjusted to 5×10^4 cells/mL and 100 μL, placed in 96 well plates with 100 μL media containing a final concentration of […] TNFα and the test compound. Cultures were incubated for 3 days and supernatants harvested. Compound toxicity was determined by MTS dye reduction. Virus expression was measured by supernatant reverse transcriptasc activity.

HeLa CD4 LTR β-gal cells = assay: Cytotoxicity for HeLa CD4 LTR β-gal cells
Protocol: as §1
This cell line represents one of 3 standard models for performing time of addition assays.

[1] = system: TNFα induced ACH-2 cells (HIV IIIB provirus); assay: ACH-2 latent infection assay, supernatant reverse transcriptase activity
Protocol: as §2
Reverse transcriptase activity was measured in cell-free supernatants. Tritiated thymidine triphosphate (NEN) (TTP) was resuspended in distilled H2O at 5 Ci/mL. Poly rA and oligo dT were prepared as a stock solution which was kept at −20° C. The RT reaction buffer was prepared fresh on a daily basis and consists of 125 μL 1.0 M EGTA, 125 μL dH2O, 110 μL 10% SDS, 50 μL 1.0 M Tris (pH 7.4), 50 μL, 1.0 M DTT, and 40 μL 1.0 M MgCl2. These three solutions were mixed together in a ratio of 2 parts TTP, 1 part poly rA:oligo dT, and 1 part reaction buffer. Ten microliters of this reaction mixture was placed in a round bottom microtiter plate and 15 μL of virus containing supernatant was added and mixed. The plate was incubated at 37° C. in a water bath with a solid support to prevent submersion of the plate and incubated for 60 minutes. Following reaction, the reaction volume was spotted onto pieces of DE81 paper, washed 5 times for 5 minutes each in a 5% sodium phosphate buffer, 2 times for 1 minute each in distilled water, 2 times for 1 minute each in 70% ethanol, and then dried. Opti-Fluor O was added to each sample and incorporated radioactivity was quantitated utilizing a Wallac 1450 Microbetaplus liquid scintillation counter.

With Zinc Iodiscorbate [Compound Z] the “TOXICITY VALUES MEAN” value (U1 cells; 0.00063 ug/ml, exp 2) was 1.055 O. D, the “% CC” value (U1 cells; 0.002 ug/ml, exp 2) was 90.5% and the “TOXICITY VALUES MEAN” value (U1 cells; 0.002 ug/ml, exp 2) was 0.963 O. D. For the same substance, the “TOXICITY VALUES MEAN” value (U1 cells; 0.00625 ug/ml, exp 2) was 1.103 O. D, the “TOXICITY VALUES MEAN” value (U1 cells; 0.02 ug/ml, exp 2) was 1.064 O. D and the “TOXICITY VALUES MEAN” value (U1 cells; 0.0625 ug/ml, exp 2) was 1.072 O. D. The “TOXICITY VALUES MEAN” value (U1 cells; 0.2 ug/ml, exp 2) was 1.031 O. D, the “TOXICITY VALUES (MTS) MEAN” value (U1 cells; 0.625 ug/ml, exp 1) was 1.791 O. D and the “% CC” value (U1 cells; 0.625 ug/ml, exp 2) was 81.6%. For the same substance, the “TOXICITY VALUES MEAN” value (U1 cells; 0.625 ug/ml, exp 2) was 0.868 O. D, the “TOXICITY VALUES (MTS) MEAN” value (U1 cells; 2 ug/ml, exp 1) was 1.732 O. D and the “% CC” value (U1 cells; 2 ug/ml, exp 2) was 82.3%. The “TOXICITY VALUES MEAN” value (U1 cells; 2 ug/ml, exp 2) was 0.876 O. D, the “% CC” value (U1 cells; 6.25 ug/ml [c2], exp 2) was 35.3% and the “TOXICITY VALUES MEAN” value (U1 cells; 6.25 ug/ml [c2], exp 2) was 0.376 O. D. For the same substance, the “TOXICITY VALUES MEAN” value (U1 cells; 6.25 ug/ml [c4], exp 2) was 1.118 O. D, the “TOXICITY VALUES (MTS) MEAN” value (U1 cells; 6.25 ug/ml, exp 1) was 1.649 O. D and the “% CC” value (U1 cells; 20 ug/ml, exp 1) was 91.7%. For the same substance, the “TOXICITY VALUES (MTS) MEAN” value (U1 cells; 20 ug/ml, exp 1) was 1.625 O. D, the “% CC” value (U1 cells; 20 ug/ml, exp 2) was 61.7% and the “TOXICITY VALUES MEAN” value (U1 cells; 20 ug/ml, exp 2) was 0.658 O. D. The “% CC” value (U1 cells; 62.5 ug/ml, exp 1) was 77.8%, the “TOXICITY VALUES (MTS) MEAN” value (U1 cells; 62.5 ug/ml, exp 1) was 1.379 O. D and the “% CC” value (U1 cells; 200 ug/ml, exp 1) was 3.6%. For the same substance, the “TOXICITY VALUES (MTS) MEAN” value (U1 cells; 200 ug/ml, exp 1) was 0.063 O. D, the “% CC” value (U1 cells; 200 ug/ml, exp 2) was 7.1% and the “TOXICITY VALUES MEAN” value (U1 cells; 200 ug/ml, exp 2) was 0.076 O. D. The TC50 (U1 cells; U1, experiment 1, Table 1) was 114, the TC50 (U1 cells; U1, experiment 2, Table 1) was 39 and the “U1 TC50” value (U1 cells; exp 2) was 38.8 µg/mL. For the same substance, the “U1 TC50” value (U1 cells; exp 2, listed as COMPOUND Z) was “TC50 (uglml) = 38.80 μg/ml”, the “TOXICITY VALUES (Cell Titer) MEAN” value (HeLa CD4 LTR β-gal cells; 3.2 μG/mL) was 1.156 O. D and the “TOXICITY VALUES (Cell Titer) MEAN” value (HeLa CD4 LTR β-gal cells; 10 μG/mL) was 1.176 O. D. The “% CC” value (HeLa CD4 LTR β-gal cells; 100 μG/mL) was 22.6%, the “TOXICITY VALUES (Cell Titer) MEAN” value (HeLa CD4 LTR β-gal cells; 100 μG/mL) was 0.259 O. D and the “% CC” value (HeLa CD4 LTR β-gal cells; 320 μG/mL) was 18.5%. For the same substance, the “TOXICITY VALUES (Cell Titer) MEAN” value (HeLa CD4 LTR β-gal cells; 320 μG/mL) was 0.212 O. D, the “% CC” value (HeLa CD4 LTR β-gal cells; 1000 μG/mL) was 18.2% and the “TOXICITY VALUES (Cell Titer) MEAN” value (HeLa CD4 LTR β-gal cells; 1000 μG/mL) was 0.208 O. D. The TC50 (HeLa CD4 LTR β-gal cells; HeLa CD4 LTR β-gal cells) was 75 µg/mL, the “cytotoxic effects on the HeLa CD4 LTR β-gal cells” value (HeLa CD4 LTR β-gal cells; initial testing) was “no significant cytotoxic effects” and the “activity in the ACH-2 assay” value [1] was “inactive”. The “% VC” value ([1]; 0.00063 μg/ml, exp 2) was 96.4%, the “RT ACTIVITY MEAN” value ([1]; 0.00063 μg/ml, exp 2) was 18594 cpm and the “% VC” value ([1]; 0.002 μg/ml, exp 2) was 106.4%. For the same substance, the “RT ACTIVITY MEAN” value ([1]; 0.002 μg/ml, exp 2) was 20516 cpm, the “% VC” value ([1]; 0.00625 μg/ml, exp 2) was 100.6% and the “RT ACTIVITY MEAN” value ([1]; 0.00625 μg/ml, exp 2) was 19411 cpm. The “% VC” value ([1]; 0.02 μg/ml, exp 2) was 116.0%, the “RT ACTIVITY MEAN” value ([1]; 0.02 μg/ml, exp 2) was 22382 cpm and the “% VC” value ([1]; 0.0625 μg/ml, exp 2) was 111.6%. For the same substance, the “RT ACTIVITY MEAN” value ([1]; 0.0625 μg/ml, exp 2) was 21532 cpm, the “% VC” value ([1]; 0.2 μg/ml, exp 2) was 114.0% and the “RT ACTIVITY MEAN” value ([1]; 0.2 μg/ml, exp 2) was 21983 cpm. For the same substance, the “% VC” value ([1]; 0.625 μg/ml, exp 2) was 104.2%, the “RT ACTIVITY MEAN” value ([1]; 0.625 μg/ml, exp 2) was 20108 cpm and the “% VC” value ([1]; 2 μg/ml, exp 2) was 104.5%. For the same substance, the “RT ACTIVITY MEAN” value ([1]; 2 μg/ml, exp 2) was 20151 cpm, the “% VC” value ([1]; 6.25 μg/ml, exp 2) was 60.8% and the “RT ACTIVITY MEAN” value ([1]; 6.25 μg/ml, exp 2) was 11729 cpm. The “% VC” value ([1]; 20 μg/ml, exp 2) was 5.1%, the “RT ACTIVITY MEAN” value ([1]; 20 μg/ml, exp 2) was 982 cpm and the “% VC” value ([1]; 62.5 μg/ml, exp 2) was 0.83%. The “RT ACTIVITY MEAN” value ([1]; 62.5 μg/ml, exp 2) was 160 cpm, the “% VC” value ([1]; 200 μg/ml, exp 2) was 0.41% and the “RT ACTIVITY MEAN” value ([1]; 200 μg/ml, exp 2) was 80 cpm. The “% VC” value ([1]; 0.00063 μG/Ml, exp 1) was 107.6%, the “RT ACTIVITY (cpm) MEAN” value ([1]; 0.00063 μG/Ml, exp 1) was 71887 cpm and the “% VC” value ([1]; 0.002 μG/Ml [c9], exp 1) was 107.8%. The “RT ACTIVITY (cpm) MEAN” value ([1]; 0.002 μG/Ml [c9], exp 1) was 71981 cpm, the “% VC” value ([1]; 0.002 μG/Ml [c11], exp 1) was 107.5% and the “RT ACTIVITY (cpm) MEAN” value ([1]; 0.002 μG/Ml [c11], exp 1) was 71843 cpm. The “% VC” value ([1]; 0.00625 μG/Ml, exp 1) was 93.3%, the “RT ACTIVITY (cpm) MEAN” value ([1]; 0.00625 μG/Ml, exp 1) was 62338 cpm and the “% VC” value ([1]; 0.0625 μG/Ml, exp 1) was 123.3%. For the same substance, the “RT ACTIVITY (cpm) MEAN” value ([1]; 0.0625 μG/Ml, exp 1) was 82351 cpm, the “% VC” value ([1]; 0.2 μG/Ml, exp 1) was 116.0% and the “RT ACTIVITY (cpm) MEAN” value ([1]; 0.2 μG/Ml, exp 1) was 77521 cpm. The “% VC” value ([1]; 0.625 μG/Ml, exp 1) was 118.9%, the “RT ACTIVITY (cpm) MEAN” value ([1]; 0.625 μG/Ml, exp 1) was 79421 cpm and the “% VC” value ([1]; 2 μG/Ml, exp 1) was 114.0%. For the same substance, the “RT ACTIVITY (cpm) MEAN” value ([1]; 2 μG/Ml, exp 1) was 76125 cpm, the “% VC” value ([1]; 6.25 μG/Ml, exp 1) was 112.7% and the “RT ACTIVITY (cpm) MEAN” value ([1]; 6.25 μG/Ml, exp 1) was 75319 cpm. The “% VC” value ([1]; 20 μG/Ml, exp 1) was 107.9%, the “RT ACTIVITY (cpm) MEAN” value ([1]; 20 μG/Ml, exp 1) was 72063 cpm and the “% VC” value ([1]; 62.5 μG/Ml, exp 1) was 3.27%. The “RT ACTIVITY (cpm) MEAN” value ([1]; 62.5 μG/Ml, exp 1) was 2186 cpm, the “% VC” value ([1]; 200 μG/Ml, exp 1) was 2.23% and the “RT ACTIVITY (cpm) MEAN” value ([1]; 200 μG/Ml, exp 1) was 1487 cpm. For the same substance, the IC50 ([1]; ACH2, exp 1, Table 2) was “IC50 (μG/Ml) = 43.51”, the IC50 ([1]; ACH-2, experiment 1, Table 1) was 43.5 µg/mL and the IC50 ([1]; ACH-2, experiment 2, Table 1) was 8.9 µg/mL. The “ACH2 EC50” value ([1]; exp 2, Table 4) was 8.9 µg/mL.

Reference: patent US20030181436A1, “Treatment for AIDS, HIV, and other related diseases and compounds for use therewith” (priority 2001, published 2003)
